Data from patent publication US12252524B2, “GIP/GLP1 co-agonist compounds” (Eli Lilly and Company, priority 2018, dated 2025).
Numbered stars: 1 amine (or outer) side, 2 acyl side, 3 side chain; on linkers, the order of the positions; unused ones are H or OH. Square brackets hold non-standard residues; d marks the D form. Side chains are listed from the residue outwards. Peptide text beside a SMILES is read from it. * marks the point of attachment. C20 diacid = O=C(O)CCCCCCCCCCCCCCCCCCC(=O)*; C18 diacid = O=C(O)CCCCCCCCCCCCCCCCC(=O)*; αMePhe(2-F) = C[C@](N)(Cc1ccccc1F)C(=O)O; γGlu = O=C(O)[C@H](CCC(=O)[*:2])N[*:1]; αMeY = C[C@](N)(Cc1ccc(O)cc1)C(=O)O; αMeF = C[C@](N)(Cc1ccccc1)C(=O)O; αMeL = CC(C)C[C@](C)(N)C(=O)O; Orn = NCCC[C@H](N)C(=O)O; AEEA = NCCOCCOCC(=O)O; Aib = CC(C)(N)C(=O)O

Assays:
human GIP receptor = molecular target: T1, human GIP receptor (Homo sapiens, UniProt P48546); assay: [125I]-GIP binding (SPA), human GIP receptor; conditions: read-out: hGIPR Ki, nM (SEM, n)
T1 construct: expressed in transfected cells; crude membranes
T1 sequence (P48546 22-466): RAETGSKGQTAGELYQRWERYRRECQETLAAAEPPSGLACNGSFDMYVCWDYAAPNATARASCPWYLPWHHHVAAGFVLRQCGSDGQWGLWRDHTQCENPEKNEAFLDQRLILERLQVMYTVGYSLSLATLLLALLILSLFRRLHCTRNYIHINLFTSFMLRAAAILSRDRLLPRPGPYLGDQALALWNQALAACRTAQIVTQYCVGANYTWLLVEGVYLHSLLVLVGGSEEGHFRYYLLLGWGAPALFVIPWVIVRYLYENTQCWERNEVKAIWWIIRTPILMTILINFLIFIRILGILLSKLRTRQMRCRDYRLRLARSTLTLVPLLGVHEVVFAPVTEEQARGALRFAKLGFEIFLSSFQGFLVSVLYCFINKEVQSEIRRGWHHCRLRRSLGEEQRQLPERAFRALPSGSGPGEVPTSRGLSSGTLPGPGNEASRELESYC

human Gcg receptor = molecular target: T2, human Gcg receptor (Homo sapiens, UniProt P47871); assay: [125I]-Glucagon binding (SPA), human Gcg receptor; conditions: read-out: hGLcgR Ki, nM (SEM, n)
T2 construct: expressed in transfected cells; crude membranes
T2 sequence (P47871 26-477): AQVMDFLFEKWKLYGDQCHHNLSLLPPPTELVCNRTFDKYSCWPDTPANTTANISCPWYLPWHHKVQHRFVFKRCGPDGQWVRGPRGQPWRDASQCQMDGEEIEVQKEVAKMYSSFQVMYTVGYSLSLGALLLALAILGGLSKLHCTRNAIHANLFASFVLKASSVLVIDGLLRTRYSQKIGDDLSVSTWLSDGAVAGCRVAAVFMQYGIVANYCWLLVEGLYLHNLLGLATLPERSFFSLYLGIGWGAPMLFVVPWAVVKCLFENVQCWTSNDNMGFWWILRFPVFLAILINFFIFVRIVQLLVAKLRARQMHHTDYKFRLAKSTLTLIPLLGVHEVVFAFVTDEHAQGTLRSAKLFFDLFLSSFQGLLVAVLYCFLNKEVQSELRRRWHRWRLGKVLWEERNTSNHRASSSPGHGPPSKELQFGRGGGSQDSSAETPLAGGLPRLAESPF
How it was run: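 Scintillation counts are taken after membranes and WGA beads incubate and settle for 12 hours at room temperature. Buffer is 25 mM HEPES, pH 7.4, with CaCl2, MgCl2, bacitracin and Tween-20. Ki values, from four-parameter IC50 fits, are geometric means over independent days.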

human GLP-1R = human GLP-1R (Homo sapiens, UniProt P43220); assay: [125I]-GLP-1 binding (SPA), human GLP-1 receptor; parameters: expressed in transfected cells; crude membranes; conditions: read-out: hGLP1R Ki, (nM) (SEM, n)
human GLP-1R, sequence (P43220 24-463): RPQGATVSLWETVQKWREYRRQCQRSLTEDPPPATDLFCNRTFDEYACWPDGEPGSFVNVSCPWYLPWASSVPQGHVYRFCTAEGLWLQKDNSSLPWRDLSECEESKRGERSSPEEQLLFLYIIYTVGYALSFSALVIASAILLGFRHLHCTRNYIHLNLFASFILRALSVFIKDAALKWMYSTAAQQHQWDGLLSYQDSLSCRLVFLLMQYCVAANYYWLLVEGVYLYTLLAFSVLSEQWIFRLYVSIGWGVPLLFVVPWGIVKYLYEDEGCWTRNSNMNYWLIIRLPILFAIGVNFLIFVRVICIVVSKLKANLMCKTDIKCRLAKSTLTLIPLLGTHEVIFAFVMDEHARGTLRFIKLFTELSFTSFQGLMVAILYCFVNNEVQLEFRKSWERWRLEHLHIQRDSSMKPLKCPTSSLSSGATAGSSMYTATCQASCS
How it was run: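 Ki values are geometric means with SEM over independent replicates on different days, derived from IC50s fitted by four-parameter nonlinear regression. The assay used crude cell membranes in HEPES buffer, pH 7.4, containing CaCl2, MgCl2, bacitracin and TWEEN-20.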

[1] = molecular target: human GLP-1 receptor (GLP-1R) (Homo sapiens, UniProt P43220); assay: cAMP pharmacological functional assay in presence of casein, hGLP-1R; format: cell-based; conditions: HEK293 cells expressing hGLP-1R, 0.1% Casein, geometric mean; read-out: hGLP1R cAMP Rel EC50 nM (SEM, n)
human GLP-1 receptor (GLP-1R), sequence (P43220 24-463): as above

[2] = molecular target: T3, gastric inhibitory peptide receptor (GIPR) (Homo sapiens, UniProt P48546); assay: cAMP pharmacological functional assay in presence of casein, hGIPR; format: cell-based; conditions: HEK293 cells expressing hGIPR, 0.1% Casein, geometric mean; read-out: hGIPR cAMP Rel EC50 nM (SEM, n)
T3 sequence (P48546 22-466): T1 sequence (P48546 22-466)

Structure (SMILES)	Ki (human GIP receptor)	Ki (human Gcg receptor)	Ki (human GLP-1R)	EC50 [1]	EC50 [2]
CC[C@H](C)[C@H](NC(=O)[C@H](CC(C)C)NC(=O)[C@H](Cc1ccc(O)cc1)NC(=O)[C@@H](CCC(=O)O)NC(=O)[C@@H](NC(=O)[C@H](Cc1ccccc1)NC(=O)[C@H](CCC(=O)O)NC(=O)C(C)(C)NC(=O)[C@H](CCC(N)=O)NC(=O)[C@H](C)NC(=O)[C@H](CCCCNC(=O)COCCOCCNC(=O)COCCOCCNC(=O)CCCCCCCCCCCCCCCCCCC(=O)O)NC(=O)[C@H](CCC(=O)O)NC(=O)[C@H](CC(=O)O)NC(=O)[C@H](CC(C)C)NC(=O)[C@](C)(CC(C)C)NC(=O)[C@@H](NC(=O)[C@H](CO)NC(=O)[C@H](Cc1ccc(O)cc1)NC(=O)[C@H](CC(=O)O)NC(=O)[C@H](CO)NC(=O)[C@@H](NC(=O)[C@](C)(Cc1ccccc1F)NC(=O)[C@@H](NC(=O)CNC(=O)[C@H](CCC(=O)O)NC(=O)C(C)(C)NC(=O)[C@@H](N)Cc1ccc(O)cc1)[C@@H](C)O)[C@@H](C)O)[C@@H](C)CC)[C@@H](C)CC)C(=O)N[C@@H](CCC(=O)O)C(=O)NCC(=O)NCC(=O)N1CCC[C@H]1C(=O)N[C@@H](CO)C(=O)N[C@@H](CO)C(=O)NCC(=O)N[C@@H](C)C(=O)N1CCC[C@H]1C(=O)N1CCC[C@H]1C(=O)N1CCC[C@H]1C(=O)N[C@@H](CO)C(N)=O [Example 215] (H-Y[Aib]EGT[αMePhe(2-F)]TSDYSI[αMeL]LDEK([AEEA-AEEA-C20 diacid])AQ[Aib]EFI[dE]YLIEGGPSSGAPPPS-NH2)	0.0666 nM	75.2 nM	6.85 nM	0.0529 nM	0.0525 nM
CC[C@H](C)[C@H](NC(=O)[C@H](CC(C)C)NC(=O)[C@H](Cc1ccc(O)cc1)NC(=O)[C@H](CCC(=O)O)NC(=O)[C@@H](NC(=O)[C@H](Cc1ccccc1)NC(=O)[C@H](C)NC(=O)C(C)(C)NC(=O)[C@H](CCC(N)=O)NC(=O)[C@H](C)NC(=O)[C@H](CCCCNC(=O)COCCOCCNC(=O)COCCOCCNC(=O)CC[C@H](NC(=O)CCCCCCCCCCCCCCCCCCC(=O)O)C(=O)O)NC(=O)[C@H](CCCCN)NC(=O)[C@H](CC(=O)O)NC(=O)[C@H](CC(C)C)NC(=O)[C@](C)(CC(C)C)NC(=O)[C@@H](NC(=O)[C@H](CO)NC(=O)[C@H](Cc1ccc(O)cc1)NC(=O)[C@H](CC(=O)O)NC(=O)[C@H](CO)NC(=O)[C@@H](NC(=O)[C@](C)(Cc1ccccc1)NC(=O)[C@@H](NC(=O)CNC(=O)[C@H](CCC(=O)O)NC(=O)C(C)(C)NC(=O)[C@@H](N)Cc1ccc(O)cc1)[C@@H](C)O)[C@@H](C)O)[C@@H](C)CC)[C@@H](C)CC)C(=O)N[C@@H](CCC(=O)O)C(=O)NCC(=O)NCC(N)=O [Example 99] (H-Y[Aib]EGT[αMeF]TSDYSI[αMeL]LDKK([AEEA-AEEA-γGlu-C20 diacid])AQ[Aib]AFIEYLIEGG-NH2)	0.027 nM	23.6 nM	1.15 nM	0.0986 nM	0.0643 nM
CC[C@H](C)[C@H](NC(=O)[C@H](Cc1ccccc1)NC(=O)[C@H](C)NC(=O)C(C)(C)NC(=O)[C@H](CCC(N)=O)NC(=O)[C@H](C)NC(=O)[C@H](CCCCNC(=O)COCCOCCNC(=O)COCCOCCNC(=O)CC[C@H](NC(=O)CCCCCCCCCCCCCCCCCCC(=O)O)C(=O)O)NC(=O)[C@H](CCCCN)NC(=O)[C@H](CC(=O)O)NC(=O)[C@H](CC(C)C)NC(=O)[C@H](CC(C)C)NC(=O)[C@@H](NC(=O)[C@H](CO)NC(=O)[C@H](Cc1ccc(O)cc1)NC(=O)[C@H](CC(=O)O)NC(=O)[C@H](CO)NC(=O)[C@@H](NC(=O)[C@H](Cc1ccccc1)NC(=O)[C@@H](NC(=O)CNC(=O)[C@H](CCC(=O)O)NC(=O)C(C)(C)NC(=O)[C@@H](N)Cc1ccc(O)cc1)[C@@H](C)O)[C@@H](C)O)[C@@H](C)CC)C(=O)N[C@@H](CCC(=O)O)C(=O)N[C@@H](Cc1ccc(O)cc1)C(=O)N[C@@H](CC(C)C)C(=O)N[C@H](C(=O)N[C@H](CCC(=O)O)C(=O)NCC(=O)NCC(=O)N1CCC[C@H]1C(=O)N[C@@H](CO)C(=O)N[C@@H](CO)C(=O)NCC(=O)N[C@@H](C)C(=O)N1CCC[C@H]1C(=O)N1CCC[C@H]1C(=O)N1CCC[C@H]1C(=O)N[C@@H](CO)C(N)=O)[C@@H](C)CC [Example 83]	0.142 nM	320 nM	7.1 nM	0.387 nM	0.182 nM
CC[C@H](C)[C@H](NC(=O)[C@H](CC(C)C)NC(=O)[C@H](Cc1ccc(O)cc1)NC(=O)[C@H](CCC(=O)O)NC(=O)[C@@H](NC(=O)[C@H](Cc1ccccc1)NC(=O)[C@H](CCC(=O)O)NC(=O)C(C)(C)NC(=O)[C@H](CCC(N)=O)NC(=O)[C@H](C)NC(=O)[C@H](CCCCNC(=O)COCCOCCNC(=O)COCCOCCNC(=O)CC[C@H](NC(=O)CCCCCCCCCCCCCCCCCCC(=O)O)C(=O)O)NC(=O)[C@H](CCC(=O)O)NC(=O)[C@H](CC(=O)O)NC(=O)[C@H](CC(C)C)NC(=O)[C@](C)(CC(C)C)NC(=O)[C@@H](NC(=O)[C@H](CO)NC(=O)[C@H](Cc1ccc(O)cc1)NC(=O)[C@H](CC(=O)O)NC(=O)[C@H](CO)NC(=O)[C@@H](NC(=O)[C@](C)(Cc1ccccc1F)NC(=O)[C@@H](NC(=O)CNC(=O)[C@H](CCC(=O)O)NC(=O)C(C)(C)NC(=O)[C@@H](N)Cc1ccc(O)cc1)[C@@H](C)O)[C@@H](C)O)[C@@H](C)CC)[C@@H](C)CC)C(=O)N[C@@H](CCC(=O)O)C(=O)NCC(=O)NCC(N)=O [Example 103] (H-Y[Aib]EGT[αMePhe(2-F)]TSDYSI[αMeL]LDEK([AEEA-AEEA-γGlu-C20 diacid])AQ[Aib]EFIEYLIEGG-NH2; N-terminus assumed)	0.0645 nM	40.3 nM	6.68 nM	0.101 nM	0.0693 nM
CC[C@H](C)[C@H](NC(=O)[C@H](CCCCN)NC(=O)[C@H](CC(=O)O)NC(=O)[C@H](CC(C)C)NC(=O)[C@H](CC(C)C)NC(=O)[C@@H](NC(=O)[C@H](CO)NC(=O)[C@H](Cc1ccc(O)cc1)NC(=O)[C@H](CC(=O)O)NC(=O)[C@H](CO)NC(=O)[C@@H](NC(=O)[C@H](Cc1ccccc1)NC(=O)[C@@H](NC(=O)CNC(=O)[C@H](CCC(=O)O)NC(=O)C(C)(C)NC(=O)[C@@H](N)Cc1ccc(O)cc1)[C@@H](C)O)[C@@H](C)O)[C@@H](C)CC)C(=O)N[C@@H](C)C(=O)N[C@@H](CCC(N)=O)C(=O)NC(C)(C)C(=O)N[C@@H](C)C(=O)N[C@@H](Cc1ccccc1)C(=O)N[C@H](C(=O)N[C@@H](CCC(=O)O)C(=O)N[C@@H](Cc1ccc(O)cc1)C(=O)N[C@@H](CC(C)C)C(=O)N[C@H](C(=O)N[C@@H](CCC(=O)O)C(=O)NCC(=O)NCC(=O)N1CCC[C@H]1C(=O)N[C@@H](CO)C(=O)N[C@@H](CO)C(=O)NCC(=O)N[C@@H](C)C(=O)N1CCC[C@H]1C(=O)N[C@@H](CCCCNC(=O)COCCOCCNC(=O)COCCOCCNC(=O)CC[C@H](NC(=O)CCCCCCCCCCCCCCCCCCC(=O)O)C(=O)O)C(=O)N1CCC[C@H]1C(=O)N[C@@H](CO)C(N)=O)[C@@H](C)CC)[C@@H](C)CC [Example 46] (H-Y[Aib]EGTFTSDYSILLDKIAQ[Aib]AFIEYLIEGGPSSGAPK([AEEA-AEEA-γGlu-C20 diacid])PS-NH2)	0.0852 nM	133 nM	13.4 nM	0.687 nM	0.172 nM
CC[C@H](C)[C@H](NC(=O)[C@H](CC(C)C)NC(=O)[C@](C)(Cc1ccc(O)cc1)NC(=O)[C@@H](CCC(=O)O)NC(=O)[C@@H](NC(=O)[C@H](Cc1ccccc1)NC(=O)[C@H](CCC(=O)O)NC(=O)C(C)(C)NC(=O)[C@H](CCC(N)=O)NC(=O)[C@H](C)NC(=O)[C@H](CCCCNC(=O)COCCOCCNC(=O)COCCOCCNC(=O)CC[C@H](NC(=O)CCCCCCCCCCCCCCCCC(=O)O)C(=O)O)NC(=O)[C@H](CCCN)NC(=O)[C@H](CC(=O)O)NC(=O)[C@H](CC(C)C)NC(=O)[C@](C)(CC(C)C)NC(=O)[C@@H](NC(=O)[C@H](CO)NC(=O)[C@H](Cc1ccc(O)cc1)NC(=O)[C@H](CC(=O)O)NC(=O)[C@H](CO)NC(=O)[C@@H](NC(=O)[C@](C)(Cc1ccccc1F)NC(=O)[C@@H](NC(=O)CNC(=O)[C@H](CCC(=O)O)NC(=O)C(C)(C)NC(=O)[C@@H](N)Cc1ccc(O)cc1)[C@@H](C)O)[C@@H](C)O)[C@@H](C)CC)[C@@H](C)CC)C(=O)N[C@@H](CCC(=O)O)C(=O)NCC(=O)NCC(=O)N1CCC[C@H]1C(=O)N[C@@H](CO)C(=O)N[C@@H](CO)C(=O)NCC(=O)N[C@@H](C)C(=O)N1CCC[C@H]1C(=O)N1CCC[C@H]1C(=O)N1CCC[C@H]1C(=O)N[C@@H](CO)C(N)=O [Example 236] (H-Y[Aib]EGT[αMePhe(2-F)]TSDYSI[αMeL]LD[Orn]K([AEEA-AEEA-γGlu-C18 diacid])AQ[Aib]EFI[dE][αMeY]LIEGGPSSGAPPPS-NH2)	0.0425 nM	200 nM	1.05 nM	0.0231 nM	0.0249 nM
